What was measured:
Type in all cases: biochemical
[1] = biological target: T1, Human PKK (Homo sapiens (Human), UniProt P03952); test: Inhibition of PKK (Ki), kinetic assay; settings: 24° C., IC50 corrected for KM
[2] = biological target: PKK in kaolin activated human platelet poor plasma (Homo sapiens (Human), UniProt P03952); test: Inhibition of PKK in kaolin activated human PPP; settings: global fit over 25, 75, 250, 750 μg/mL kaolin
Method: Platelet poor plasma (PPP) obtained from human wholeblood, anticoagulated with Na-Citrat, was incubated with various concentrations of the test compound together with either 25, 75, 250, or 750 μg/mL kaolin in assay buffer for 20 min at 37° C. such that for each kaolin dose used a concentration response was obtained for the test compound.

[3] = biological target: T1, Human PKK; test: Inhibition of PKK, endpoint assay (human PKK); settings: substrate H-Pro-Phe-Arg-AMC, 1 h room temperature
Method: Subsequently, PPACK II (Calbiochem) was added as a stop solution to achieve a final concentration of 1 μM and fluorescence was measured using an Envision Reader (PerkinElmer) with the wavelength excitation setting of 355 nm and the wavelength emission setting of 460 nm.

[4] = biological target: human TK1 (Homo sapiens (Human), UniProt P06870); test: Inhibition of TK1 (Ki); settings: column head prints IC50, text above the table says Ki values
Chain of human TK1 (P06870 25-262): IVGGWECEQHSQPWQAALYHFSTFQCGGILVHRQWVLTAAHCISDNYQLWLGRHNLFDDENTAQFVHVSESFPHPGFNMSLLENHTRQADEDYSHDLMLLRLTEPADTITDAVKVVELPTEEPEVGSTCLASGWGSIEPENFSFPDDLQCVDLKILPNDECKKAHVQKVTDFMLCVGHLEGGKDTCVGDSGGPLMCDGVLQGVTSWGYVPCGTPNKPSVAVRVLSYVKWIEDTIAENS
Procedure, shortened: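 Trypsin-activated human TK1 (31.25 nM or 1 U/mL) incubated at 24 °C with 0.1 mM H-Pro-Phe-Arg-AMC and compound in pH 7.8 Tris/NaCl buffer with 0.1% BSA, 1% DMSO; fluorescence read kinetically over 16 min. IC50 from Vmax (2-12 min) four-parameter fit, converted to Ki using substrate KM.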

T1 sequence (P03952 391-638): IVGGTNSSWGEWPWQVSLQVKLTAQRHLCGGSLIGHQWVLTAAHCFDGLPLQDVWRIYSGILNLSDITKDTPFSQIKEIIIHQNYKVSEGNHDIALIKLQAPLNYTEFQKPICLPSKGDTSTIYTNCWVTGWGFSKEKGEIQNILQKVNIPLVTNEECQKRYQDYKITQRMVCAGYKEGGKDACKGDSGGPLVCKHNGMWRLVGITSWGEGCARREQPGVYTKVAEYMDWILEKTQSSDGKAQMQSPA
T1 sequence (P03952 20-390 partner): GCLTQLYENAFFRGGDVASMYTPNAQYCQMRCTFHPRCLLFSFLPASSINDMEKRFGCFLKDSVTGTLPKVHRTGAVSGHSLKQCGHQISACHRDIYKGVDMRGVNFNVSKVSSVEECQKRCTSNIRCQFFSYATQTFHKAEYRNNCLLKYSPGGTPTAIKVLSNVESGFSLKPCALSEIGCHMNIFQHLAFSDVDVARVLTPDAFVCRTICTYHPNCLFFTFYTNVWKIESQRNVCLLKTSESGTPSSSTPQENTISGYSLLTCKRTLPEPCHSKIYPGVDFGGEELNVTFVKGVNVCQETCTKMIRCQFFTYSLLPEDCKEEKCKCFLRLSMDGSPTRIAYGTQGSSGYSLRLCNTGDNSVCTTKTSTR
Chain of PKK in kaolin activated human platelet poor plasma (P03952 391-638): as the sequence (P03952 391-638) above
Chain of PKK in kaolin activated human platelet poor plasma (P03952 20-390 partner): as the sequence (P03952 20-390 partner) above

Row | SMILES | Ki [1] [nM] | IC90 [2] [nM] | IC50 [3] [nM] | IC50 [4] [nM]
1 | Cc1nc(N2CC3CC3C2)ccc1Cn1cc(C(=O)N[C@@H]2CCc3c2n[nH]c3C)nc1Cl (stereo partly drawn) [Example 102, 1-[(6-{3-Azabicyclo[3.1.0]hexan-3-yl}-2-methyl-pyridin-3-yl)methyl]-2-chloro-N-[(6R)-3-methyl-2H,4H,5H,6H-cyclopenta[c]pyrazol-6-yl]-1H-imidazole-4-carboxamide] | 4 | 5480 | 1 | > 10000
2 | Cc1[nH]nc2c1CC[C@H]2NC(=O)c1cn(Cc2ccc(N3CC4CC4C3)nc2)cn1 (stereo partly drawn) [Example 103, 1-[(6-{3-Azabicyclo[3.1.0]hexan-3-yl}pyridin-3-yl)-methyl]-N-[(6R)-3-methyl-2H,4H,5H,6H-cyclo-penta[c]pyrazol-6-yl]-1H-imidazole-4-carboxamide] | 3 | 416 | 2 | > 10000
3 | Cc1[nH]nc2c1CC[C@H]2NC(=O)c1cn(Cc2ccc(N3CC4(CC4)C3)nc2)cn1 [Example 104, 1-[(6-{5-Azaspiro[2.3]hexan-5-yl}pyridin-3-yl)-methyl]-N-[(6R)-3-methyl-2H,4H,5H,6H-cyclo-penta[c]pyrazol-6-yl]-1H-imidazole-4-carboxamide] | 3 | 444 | 3 | > 10000
4 | Cc1nc(N2CC3CC3C2)ccc1Cn1cc(C(=O)N[C@@H]2CCc3c2n[nH]c3C)c2cc(C(=O)O)ccc21 (stereo partly drawn) [Example 108, 1-[(6-{3-Azabicyclo[3.1.0]hexan-3-yl}-2-methylpyridin-3-yl)methyl]-3-{[(6R)-3-methyl-2H,4H,5H,6H-cyclopenta[c]pyrazol-6-yl]carbamoyl}-1H-indole-5-carboxylic acid] | 6 | 776 | 1 | > 10000
